Here are results for 23 compounds from PubChem BioAssay AID330 (DTP/NCI, 2004).

This experiment deals with P388 leukemia ip, CD2F1 mice, survival T/C. Put plainly: NCI In Vivo Anticancer Drug Screen. Data for tumor model P388 Leukemia (intraperitoneal) in CD2F1 (CDF1) mice. As to conditions: endpoint: median survival time, higher = longer survival. In outline:
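Mice carrying the transplanted tumor received test compound or vehicle. Survival was recorded in each group, and the value is the treated-group measurement divided by that of the vehicle-treated control group.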

[1] abbreviates: dose: 60.0 mg/kg/injection, schedule: Q01DX005 (ip), vehicle: saline with Tween-80.
Setting [2] is: dose: 120.0 mg/kg/injection, schedule: Q01DX005 (ip), vehicle: saline with Tween-80.
Where [3] appears, read: dose: 50.0 mg/kg/injection, schedule: Q01DX009 (ip), vehicle: saline.
Setting [4] is: dose: 100.0 mg/kg/injection, schedule: Q01DX009 (ip), vehicle: saline.
Where [5] appears, read: dose: 200.0 mg/kg/injection, schedule: Q01DX009 (ip), vehicle: saline.
The mark [6] stands for this setting: dose: 50.0 mg/kg/injection, schedule: Q01DX005 (ip), vehicle: saline with Tween-80.
Where [7] appears, read: dose: 100.0 mg/kg/injection, schedule: Q01DX005 (ip), vehicle: saline with Tween-80.
The mark [8] stands for this setting: dose: 200.0 mg/kg/injection, schedule: Q01DX005 (ip), vehicle: saline with Tween-80.
Where [9] appears, read: dose: 12.5 mg/kg/injection, schedule: Q01DX009 (ip), vehicle: saline.
The mark [10] stands for this setting: dose: 25.0 mg/kg/injection, schedule: Q01DX009 (ip), vehicle: saline.
Setting [11] is: dose: 50.0 mg/kg/injection, schedule: Q01DX009 (ip), vehicle: Klucel (hydroxypropylcellulose) (HPC).
Where [12] appears, read: dose: 400.0 mg/kg/injection, schedule: Q01DX009 (ip), vehicle: saline.
The mark [13] stands for this setting: dose: 100.0 mg/kg/injection, schedule: Q01DX009 (ip), vehicle: Klucel (hydroxypropylcellulose) (HPC).
[14] abbreviates: dose: 200.0 mg/kg/injection, schedule: Q01DX009 (ip), vehicle: Klucel (hydroxypropylcellulose) (HPC).
The mark [15] stands for this setting: dose: 6.25 mg/kg/injection, schedule: Q01DX009 (ip), vehicle: saline.

Where “and” joins values, the source holds several entries; their conditions need not be identical. Equal values may be shown once. Inconclusive results and toxic doses are left out. Square brackets hold non-standard residues; d marks the D form. Peptide text beside a SMILES is read from it. ξ: configuration not given here. Ac5c = NC1(C(=O)O)CCCC1; ξS = NC(CO)C(=O)O

For the compound `ClC1=C(Cl)C2(Cl)C3C4CC(C5OC45)C3C1(Cl)C2(Cl)Cl` (stereo unspecified), the T/C runs as follows: (dose: 3.13 mg/kg/injection, schedule: Q01DX009 (ip), vehicle: saline with Tween-80) 104 % of control and 97 % of control; (dose: 6.25 mg/kg/injection, schedule: Q01DX009 (ip), vehicle: saline with Tween-80) 90 % of control and 97 % of control; (dose: 12.5 mg/kg/injection, schedule: Q01DX009 (ip), vehicle: saline with Tween-80) 86 % of control.
With `CCCCCC(/C=C/C1C(O[Si](C)(C)C(C)(C)C)CC(N(C)C)C1(C/C=C/CCCC(=O)OC)S(=O)(=O)c1ccccc1)O[Si](C)(C)C(C)(C)C` (stereo unspecified), the T/C was 91 % of control (dose: 100.0 mg/kg/injection, schedule: Q04DX002 (ip), vehicle: Klucel (hydroxypropylcellulose) (HPC)); 88 % of control (dose: 200.0 mg/kg/injection, schedule: Q04DX002 (ip), vehicle: Klucel (hydroxypropylcellulose) (HPC)); 89 % of control (dose: 400.0 mg/kg/injection, schedule: Q04DX002 (ip), vehicle: Klucel (hydroxypropylcellulose) (HPC)).
Turning to `CCOC(=O)c1c(O)c(C)c(=O)n2c1[nH]c1cc(C)c(C)cc12`, the T/C is, setting by setting: under setting [1], 93 % of control; under setting [2], 98 % of control.
For `CCOC(=O)c1c2c(n(-c3ccccc3)c1C)C(=O)c1ccccc1C2=O`, the T/C reads like this: under setting [3], 99 % of control; under setting [4], 92 % of control; under setting [5], 98 % of control.
Take `CCNC(=O)CCC(NS(=O)(=O)c1ccc(NC(=O)c2ccc(Cl)cc2)cc1)C(=O)O` (stereo unspecified): the T/C is 107 % of control under setting [6], 104 % of control under setting [7] and 102 % of control under setting [8].
Turning to `Cc1ccc(NC(=O)Oc2cc(C)c(Br)c(C)c2)cc1[N+](=O)[O-]`, the T/C is, setting by setting: under setting [9], 95 % of control; under setting [10], 97 % of control; (dose: 50.0 mg/kg/injection, schedule: Q01DX009 (ip), vehicle: saline + alcohol) 98 % of control; under setting [3], 101 % of control; (dose: 200.0 mg/kg/injection, schedule: Q01DX009 (ip), vehicle: saline + alcohol) 100 % of control.
In the case of `COC(=O)Nc1csc(NC(=O)OC)n1`, the T/C under setting [6] was 96 % of control, the T/C under setting [7] is 95 % of control and the T/C under setting [8] was 87 % of control.
`COC1=CCCC(C(C)=O)C1Sc1ccccc1` (stereo unspecified): the T/C is, setting by setting: (dose: 100.0 mg/kg/injection, schedule: Q01DX001 (ip), vehicle: saline) 100 % of control; (dose: 200.0 mg/kg/injection, schedule: Q01DX001 (ip), vehicle: saline) 102 % of control; (dose: 400.0 mg/kg/injection, schedule: Q01DX001 (ip), vehicle: saline) 100 % of control.
In the case of `O=[N+]([O-])c1ccc(Sc2nc3ccccc3[nH]2)nc1`, the T/C is, setting by setting: (dose: 50.0 mg/kg/injection, schedule: Q01DX009 (ip), vehicle: suspension in saline) 100 % of control; (dose: 100.0 mg/kg/injection, schedule: Q01DX009 (ip), vehicle: suspension in saline) 100 % of control; (dose: 200.0 mg/kg/injection, schedule: Q01DX009 (ip), vehicle: suspension in saline) 99 % of control.
On to `ClC(Cl)(Cl)C1=NC2=C(Br)C=C(Br)C3=NC(C(Br)(Br)Br)=NC(=N1)N32`, for which the T/C is, setting by setting: (dose: 60.0 mg/kg/injection, schedule: Q01DX005 (ip), vehicle: Klucel + Tween-80) 105 % of control; (dose: 120.0 mg/kg/injection, schedule: Q01DX005 (ip), vehicle: Klucel + Tween-80) 110 % of control.
Regarding `C/C(N)=C\C(=S)Nc1ccccc1`, the T/C is, setting by setting: (dose: 12.5 mg/kg/injection, schedule: Q01DX009 (ip), vehicle: Klucel (hydroxypropylcellulose) (HPC)) 100 % of control; (dose: 25.0 mg/kg/injection, schedule: Q01DX009 (ip), vehicle: Klucel (hydroxypropylcellulose) (HPC)) 106 % of control; under setting [11], 104 % of control.
With `Cc1cccc(C2N=C3Oc4ccccc4C=C3C(=O)N2)c1` (stereo unspecified), the T/C (dose: 6.25 mg/kg/injection, schedule: Q01DX005 (ip), vehicle: Klucel (hydroxypropylcellulose) (HPC)) is 96 % of control; the T/C (dose: 12.5 mg/kg/injection, schedule: Q01DX005 (ip), vehicle: Klucel (hydroxypropylcellulose) (HPC)) is 95 % of control; the T/C (dose: 25.0 mg/kg/injection, schedule: Q01DX005 (ip), vehicle: Klucel (hydroxypropylcellulose) (HPC)) was 96 % of control; the T/C (dose: 50.0 mg/kg/injection, schedule: Q01DX005 (ip), vehicle: Klucel (hydroxypropylcellulose) (HPC)) is 99 % of control; the T/C (dose: 100.0 mg/kg/injection, schedule: Q01DX005 (ip), vehicle: Klucel (hydroxypropylcellulose) (HPC)) was 105 % of control.
For `CN(C)Cc1ncccc1O`, the T/C under setting [4] was 102 % of control and 95 % of control; the T/C under setting [5] is 100 % of control and 112 % of control; the T/C under setting [12] was 113 % of control.
Consider `S=C1OCCO1`, for which the T/C under setting [11] is 106 % of control; the T/C under setting [13] is 102 % of control; the T/C under setting [14] was 100 % of control; the T/C (dose: 400.0 mg/kg/injection, schedule: Q01DX009 (ip), vehicle: Klucel (hydroxypropylcellulose) (HPC)) is 105 % of control.
As to `c1ccc(CCN2CCC3(CC2)COCc2ccccc23)cc1`, for the setting “dose: 100.0 mg/kg/injection, schedule: Q01DX001 (ip), vehicle: saline with Tween-80”, the T/C was 96 % of control.
For the compound `CC1(C)CCc2c(cc3c(c2O)CCC(C)(C)O3)O1`, the T/C runs as follows: under setting [1], 109 % of control; under setting [2], 117 % of control; (dose: 240.0 mg/kg/injection, schedule: Q01DX005 (ip), vehicle: saline with Tween-80) 100 % of control.
As for `NC(=O)c1csc(C2OC3COP(=O)(O)OC3C2O)n1` (stereo unspecified), the T/C is 105 % of control (dose: 12.5 mg/kg/injection, schedule: Q01DX005 (ip), vehicle: water); 105 % of control (dose: 25.0 mg/kg/injection, schedule: Q01DX005 (ip), vehicle: water); 114 % of control and 118 % of control (dose: 50.0 mg/kg/injection, schedule: Q01DX005 (ip), vehicle: water); 123 % of control and 124 % of control (dose: 100.0 mg/kg/injection, schedule: Q01DX005 (ip), vehicle: water); 152 % of control (dose: 200.0 mg/kg/injection, schedule: Q01DX005 (ip), vehicle: water); 155 % of control (dose: 400.0 mg/kg/injection, schedule: Q01DX005 (ip), vehicle: water).
As for `COc1cccc(C(OC(=O)c2ccccc2)c2nncc3ccccc23)c1OC` (stereo unspecified), the T/C reads like this: under setting [11], 100 % of control; under setting [13], 103 % of control; under setting [14], 100 % of control.
As to `COc1ccc2c(c1)OC1CC2NC(N)=N1` (stereo unspecified), the T/C under setting [15] was 100 % of control, the T/C under setting [9] was 107 % of control and the T/C under setting [10] was 109 % of control.
In the case of `O=S(=O)(O)c1cccnc1`, the T/C was 104 % of control under setting [4]; 100 % of control (dose: 100.0 mg/kg/injection, schedule: Q04DX003 (ip), vehicle: saline); 104 % of control under setting [5]; 95 % of control (dose: 200.0 mg/kg/injection, schedule: Q04DX003 (ip), vehicle: saline); 95 % of control under setting [12]; 100 % of control (dose: 400.0 mg/kg/injection, schedule: Q04DX003 (ip), vehicle: saline).
`O=C(CC(=O)Oc1ccc(Cl)cc1Cl)Oc1ccc(Cl)cc1Cl`: the T/C is, setting by setting: (dose: 100.0 mg/kg/injection, schedule: Q04DX003 (ip), vehicle: saline with Tween-80) 95 % of control; (dose: 200.0 mg/kg/injection, schedule: Q04DX003 (ip), vehicle: saline with Tween-80) 91 % of control; (dose: 400.0 mg/kg/injection, schedule: Q04DX003 (ip), vehicle: saline with Tween-80) 100 % of control.
For the compound `O=C(CCl)NC(Cc1cccc(F)c1)C(=O)O` (stereo unspecified), the T/C reads like this: (dose: 1.56 mg/kg/injection, schedule: Q01DX009 (ip), vehicle: saline) 97 % of control; (dose: 3.12 mg/kg/injection, schedule: Q01DX009 (ip), vehicle: saline) 97 % of control; under setting [15], 100 % of control and 96 % of control.
In the case of `CCOC(=O)C(CO)NC(=O)C1(NC(C)=O)CCCC1` (stereo unspecified) (Ac-[Ac5c]-[ξS]-OEt), the T/C reads like this: (dose: 50.0 mg/kg/injection, schedule: Q01DX005 (ip), vehicle: saline) 100 % of control; (dose: 100.0 mg/kg/injection, schedule: Q01DX005 (ip), vehicle: saline) 100 % of control; (dose: 200.0 mg/kg/injection, schedule: Q01DX005 (ip), vehicle: saline) 100 % of control.
